# Laboratory results published in patent US10513526B2, “Solid state forms of spiro-oxindole compounds” (Xenon Pharmaceuticals Inc., priority 2016, dated 2019).
# Test: Melting of Form A0 in dry N2 (heated to 140° C., cooled to room temperature)
# Assay type: physicochemical
# Conditions: heated to 140° C. in dry N2 atmosphere, then cooled to room temperature and crushed
# Procedure: A. The amorphous form of funapide was generated by melting Form A0 of funapide in a dry N2 atmosphere optionally using the VT stage on the XRPD unit. The sample was heated to 140° C. and then cooled to room temperature and crushed. […] The sample was confirmed to be the amorphous form of funapide by XRPD.
structure (smiles),measurement,value
O=C1N(Cc2ccc(C(F)(F)F)o2)c2ccccc2[C@]12COc1cc3c(cc12)OCO3 [Form A0 of funapide],decomposition on melting,No decomposition was observed
